The values that follow come from patent publication US6365173B1, “Stereocomplex polymeric carriers for drug delivery” (Efrat Biopolymers Ltd., priority 1999, dated 2002).

Common to all, as to type: physicochemical
Data set [1] in a line: In vitro release of leuprolide from D-PLA/L-PLA complex powder. The following applies: in 40 days; 4 mg leuprolide acetate in D-PLA/L-PLA complex powder; phosphate buffer pH 7.4 at 37° C. Here is the method: Preparation of complex: Solutions of leuprolide acetate in acetonitrile (4 mg) and D-PLA, (58 mg, Mw=100,000) and L-PLA (38 mg, Mw=30,000) in acetonitrile were mixed together (total 5 ml) and allowed to stir for 3 days at 50° C. The precipitated powder was isolated by filtration to yield 98 mg of 1 micron size porous particles. No leuprolide remained in the acetonitrile solution.
In vitro release was conducted in phosphate buffer pH 7.4 at 37° C. Leuprolide concentration was determined by HPLC (acetonitrile:water, C18 column, 1 ml/min). About 37% of the drug was released constantly in 40 days.

The nature of data set [2]: Release of lidocaine from compression molded stereocomplex devices in buffer. The following applies: compression molded D-PLA/L-PLA stereocomplex (200 mg, Mw=30,000) with lidocaine (20 mg); buffer solution pH 7.4 at 37° C. Here is the method:
A fine powder of the nano-discs stereocomplexed of D-PLA and L-PLA and their complexes which were of flat shapes of discs, rods, and triangles, as analyzed in Example 3, provided a unique opportunity for the preparation of drug delivery devices. Devices were prepared by compression molding of these nanoscale structures with drugs.
The disintegration time and the release of the incorporated drug in buffer solutions was slower than the compression molded devices of the corresponding regular polymers. The regular polymer powders are difficult to obtain and their properties are erratic, since they are prepared by precipitation in non-aqueous solvent and grinding at a temperature below the glass transition temperature which provides irregular particle size and shape. The particles formed by stereocomplex formation are of well-defined flat crystallites that are easy to compression mold.
In a typical experiment, disc (10×2 mm) and rod shape (4×10 mm) devices were prepared by mixing the stereocomplex powder of D-PLA and L-PLA (200 mg, Mw=30,000) with lidocaine (20 mg) and compression molding into discs of […] size.
Lidocaine was released constantly for 30 days when placed in buffer solution p H7.4 at 37° C.

Data set [3] can be described thus: MTX release from PLA stereocomplex tablets in phosphate buffer. The following applies: first 10 days; 10 ml pH 7.4 phosphate buffer at 37° C., shaking 150 RPM. Here is the method: Formulations: MTX was incorporated in a stereocomplex of D-PLA/L-PLA (Mw=30,000) prepared by precipitation in acetonitrile. The drug in the form of a powder was mixed with the stereocomplex in the form of a powder, and the mixture compression molded to form tablets. Alternatively, the stereocomplex and MTX were dissolved in dichloromethane, and solvent evaporated to yield a fine powder. For comparison, a solution of random amorphic DL-PLA (Mw=30,000) and MTX was evaporated to dryness to yield a clear flexible and strong yellow film which could be formed into a powder through the use of liquid nitrogen.
In a typical experiment, 300 mg of PLA 1:1 stereocomplex was dissolved in dichloromethane. MTX (5% w/w) was added to the solution, and the mixture was vortexed for two minutes. The solvent was evaporated with a nitrogen stream, to yield a very fine powder. […] Discs were prepared by compression molding of the MTX—stereocomplex power (100 mg) using a stainless steel mold (internal diameter 10 mm) and a Carver Press at 10 tons. Alternatively, 300 mg of PLA 1:1 stereocomplex fine powder (average particle size 2.2 microns was mixed with MTX (150 mg) and the uniform powder was compressed into tablets of 200 mg each.
MTX release was conducted in 10 ml of pH 7.4 phosphate buffer at 37° C. with constant shaking of 150 RPM. […]

Data set [4] is described as follows: Ibuprofen release from D-PLA-HSA stereocomplex tablets in phosphate buffer. The following applies: ibuprofen (100 mg) with D-PLA-HSA or D-PLA-L-PLA-HSA (500 mg), 300 mg tablets; phosphate buffer at physiological pH 37° C. Here is the method: The precipitate of D-PLA-HSA prepared as described in Example 9 was also used as a matrix carrier for the delivery of small drugs. In a typical experiment, a fine powder of ibuprofen (100 mg) was mixed with the D-PLA-HSA or D-PLA-L-PLA-HSA (500 mg) and the powder was compressed into tablets of 300 mg each. The tablets released the ibuprofen for one week when placed in phosphate buffer at physiological pH 37° C. In similar experiments, other proteins were stereocomplexed with PLA enantiomers including fibrin, fibrinogen, collagen and gelatin.

Data set [5] is described as follows: LHRH release from PLA stereocomplex powders in phosphate buffer (syringe method, HPLC). The settings on record: nanosize complexes of LHRH with D-PLA, precipitated in hot acetonitrile. Here is the method:
The analysis of LHRH was conducted using the following HPLC method: Mobile phase comprised 30% acetonitrile, 70% TEAP (triethylammoniumphosphate) buffer […] pH-3. Column comprised Lichrosphere RP-18 […] (MERCK); Detector. UV 278 nm and flow rate at 1 ml/min.
All samples were filtered through a 2μ filter. One drop of phosphoric acid was added to the sample solutions before injection. The retention time for LHRH was 6.5 minutes and a calibration curve was generated (r2=0.999).
Since the powder of the LHRH in the stereocomplex is very thin, all the attempts to sink it at the release medium failed. The release was conducted in the following way: 100 mg of the powder in 5 ml phosphate buffer were added to a 10 ml syringe. The edge of the syringe was sealed and constantly shaken at a rate of 150 RPM and a temperature of 37° C. At each interval of time, the syringe was inverted so that the solid floated at the top of the buffer and all of the buffer was pushed out of the syringe in a dropwise fashion. Using this technique, the powders of LHRH in PLA stereocomplex (formulations a-e) were analyzed against a control blank of PLA stereocomplex (no drug).

A short description of data set [6]: TRH release from D-PLA complex powder in phosphate buffer. The settings on record: D-PLA complex powder (10% w/w TRH) dispersed in phosphate buffer pH7.4 at 37° C. Here is the method:
TRH is a tripeptide with the following structure: pL-Glu-L-His-L-Pro_NH2. 250 mg of D-PLA (Mw=30,000 or Mw=6,000) were mixed with 25 mg (10% w/w) of TRH in 10 ml acetonitrile at 60° C. The solution became clear after 15 minutes and remained clear for 72 hours, at which point precipitate formed. The solution was very turbid, but could not be filtered at room temperature due to the fine particle size of the precipitate. After cooling at 0° C. over night, the precipitate was filtered. The TRH concentration in the acetonitrile solution and in the powder was analyzed as described above using the Lowry method for peptide analysis. Over 90% of the drug was determined to be in the powder and a negligible amount of the drug was found in the acetonitrile solution. When dispersed in phosphate buffer pH7.4 at 37° C., TRH was constantly released for 6 weeks.

For `CCNC(=O)[C@@H]1CCCN1C(=O)[C@H](CCCNC(=N)N)NC(=O)[C@H](CC(C)C)NC(=O)[C@@H](CC(C)C)NC(=O)[C@H](Cc1ccc(O)cc1)NC(=O)[C@H](CO)NC(=O)[C@H](Cc1c[nH]c2ccccc12)NC(=O)[C@H](Cc1c[nH]cn1)NC(=O)[C@@H]1CCC(=O)N1` [Leuprolide, leuprolide acetate], the “drug (leuprolide) released constantly” value in data set [1] is “About 37%”. On to `CCN(CC)CC(=O)Nc1c(C)cccc1C` [Lidocaine, lidocaine], for which the “time over which lidocaine was released constantly” value in data set [2] is listed as 30 days.

On to `CN(Cc1cnc2nc(N)nc(N)c2n1)c1ccc(C(=O)N[C@@H](CCC(=O)O)C(=O)O)cc1` [MTX, Methotrexate], for which the “MTX constantly released from the PLA stereocomplex” value in data set [3] is on record as “About 30%”.

Consider `CC(C)Cc1ccc(C(C)C(=O)O)cc1` (stereo not drawn) [ibuprofen], for which the “time over which the tablets released ibuprofen” value in data set [4] is given as “one”. With “Leutinizing Hormone Releasing Hormone [LHRH]”, the “time over which LHRH was constantly released from nanospheres” value in data set [5] is given as “over 3 weeks”.

pL-Glu-L-His-L-Pro_NH2 [TRH]: the “time over which TRH was constantly released” value in data set [6] amounted to 6 weeks.
